In ChEMBL document CHEMBL4507268 (2021):

What was measured:
[1] = biological target: eIF-2-alpha kinase GCN2 (Homo sapiens) (UniProt Q9P2K8); details: Compound concentration 1.0 uM
[2] = biological target: Sodium-dependent dopamine transporter (Homo sapiens) (UniProt Q01959); details: Compound concentration 10.0 uM
[3] = biological target: 5'-AMP-activated protein kinase catalytic subunit alpha-1 (Homo sapiens) (UniProt Q13131); details: Compound concentration 1.0 uM
[4] = biological target: Wee1-like protein kinase 2 (Homo sapiens) (UniProt P0C1S8); details: Compound concentration 1.0 uM
[5] = biological target: RAC-alpha serine/threonine-protein kinase (Homo sapiens) (UniProt P31749); details: Compound concentration 1.0 uM
Sequence of RAC-alpha serine/threonine-protein kinase (Homo sapiens) (P31749 whole entry): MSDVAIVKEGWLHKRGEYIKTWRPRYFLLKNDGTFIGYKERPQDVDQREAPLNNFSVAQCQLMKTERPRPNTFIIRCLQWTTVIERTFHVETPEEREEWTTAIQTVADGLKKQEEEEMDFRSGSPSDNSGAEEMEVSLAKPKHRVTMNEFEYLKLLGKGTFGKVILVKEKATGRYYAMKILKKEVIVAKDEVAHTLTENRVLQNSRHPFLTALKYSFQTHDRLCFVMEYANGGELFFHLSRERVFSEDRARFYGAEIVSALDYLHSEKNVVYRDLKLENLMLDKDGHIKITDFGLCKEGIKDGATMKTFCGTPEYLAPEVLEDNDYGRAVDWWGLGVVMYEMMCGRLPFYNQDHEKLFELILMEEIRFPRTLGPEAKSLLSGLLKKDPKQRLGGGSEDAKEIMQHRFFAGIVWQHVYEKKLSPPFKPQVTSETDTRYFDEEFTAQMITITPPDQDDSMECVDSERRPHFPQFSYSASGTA

[6] = biological target: Focal adhesion kinase 1 (Homo sapiens) (UniProt Q05397); details: Compound concentration 1.0 uM
[7] = biological target: Glycogen synthase kinase-3 beta (Homo sapiens) (UniProt P49841); details: Compound concentration 1.0 uM
[8] = biological target: Mitogen-activated protein kinase 10 (Homo sapiens) (UniProt P53779); details: Compound concentration 1.0 uM
Sequence of Mitogen-activated protein kinase 10 (Homo sapiens) (P53779 whole entry): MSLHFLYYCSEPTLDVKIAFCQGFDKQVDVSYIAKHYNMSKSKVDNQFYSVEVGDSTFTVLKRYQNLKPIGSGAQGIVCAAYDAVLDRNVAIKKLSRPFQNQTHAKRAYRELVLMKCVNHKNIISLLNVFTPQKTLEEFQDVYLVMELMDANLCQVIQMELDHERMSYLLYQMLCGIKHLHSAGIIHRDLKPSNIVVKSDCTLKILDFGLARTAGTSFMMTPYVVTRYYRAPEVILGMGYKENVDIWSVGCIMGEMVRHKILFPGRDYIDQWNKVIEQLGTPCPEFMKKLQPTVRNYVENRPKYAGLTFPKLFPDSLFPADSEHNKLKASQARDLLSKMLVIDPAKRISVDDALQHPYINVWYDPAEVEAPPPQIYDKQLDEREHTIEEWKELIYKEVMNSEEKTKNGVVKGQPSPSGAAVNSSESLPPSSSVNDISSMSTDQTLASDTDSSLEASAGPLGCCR

[9] = biological target: Activated CDC42 kinase 1 (Homo sapiens) (UniProt Q07912); details: Compound concentration 1.0 uM
Sequence of Activated CDC42 kinase 1 (Homo sapiens) (Q07912 whole entry, looked up): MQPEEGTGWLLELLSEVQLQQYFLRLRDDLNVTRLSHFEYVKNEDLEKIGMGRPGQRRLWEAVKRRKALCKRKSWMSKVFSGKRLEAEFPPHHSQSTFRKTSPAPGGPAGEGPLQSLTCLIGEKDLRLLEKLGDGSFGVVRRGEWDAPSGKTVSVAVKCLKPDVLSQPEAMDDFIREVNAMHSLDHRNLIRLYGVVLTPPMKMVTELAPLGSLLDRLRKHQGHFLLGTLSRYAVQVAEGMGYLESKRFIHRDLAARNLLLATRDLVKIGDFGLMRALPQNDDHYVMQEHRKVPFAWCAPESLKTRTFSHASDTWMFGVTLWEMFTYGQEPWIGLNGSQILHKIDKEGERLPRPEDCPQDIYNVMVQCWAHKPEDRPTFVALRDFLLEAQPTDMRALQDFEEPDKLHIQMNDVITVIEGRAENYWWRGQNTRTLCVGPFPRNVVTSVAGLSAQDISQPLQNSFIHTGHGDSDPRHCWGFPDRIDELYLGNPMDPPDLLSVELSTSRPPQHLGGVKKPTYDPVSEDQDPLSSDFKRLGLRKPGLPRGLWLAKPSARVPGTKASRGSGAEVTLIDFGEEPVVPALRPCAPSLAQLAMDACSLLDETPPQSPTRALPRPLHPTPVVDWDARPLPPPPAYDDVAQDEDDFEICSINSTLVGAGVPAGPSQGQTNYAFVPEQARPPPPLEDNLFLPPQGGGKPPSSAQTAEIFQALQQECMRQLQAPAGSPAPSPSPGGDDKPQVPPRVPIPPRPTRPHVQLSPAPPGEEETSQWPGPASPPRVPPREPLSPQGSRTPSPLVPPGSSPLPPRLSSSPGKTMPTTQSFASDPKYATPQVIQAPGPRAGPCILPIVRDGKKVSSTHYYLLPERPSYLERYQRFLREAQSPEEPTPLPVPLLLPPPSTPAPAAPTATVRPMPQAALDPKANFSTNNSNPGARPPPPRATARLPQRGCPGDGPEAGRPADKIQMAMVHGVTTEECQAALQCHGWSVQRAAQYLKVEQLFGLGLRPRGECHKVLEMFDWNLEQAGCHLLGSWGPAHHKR

[10] = biological target: Ribosomal protein S6 kinase alpha-4 (Homo sapiens) (UniProt O75676); details: Compound concentration 1.0 uM
[11] = biological target: RAC-gamma serine/threonine-protein kinase (Homo sapiens) (UniProt Q9Y243); details: Compound concentration 1.0 uM
Sequence of RAC-gamma serine/threonine-protein kinase (Homo sapiens) (Q9Y243 whole entry): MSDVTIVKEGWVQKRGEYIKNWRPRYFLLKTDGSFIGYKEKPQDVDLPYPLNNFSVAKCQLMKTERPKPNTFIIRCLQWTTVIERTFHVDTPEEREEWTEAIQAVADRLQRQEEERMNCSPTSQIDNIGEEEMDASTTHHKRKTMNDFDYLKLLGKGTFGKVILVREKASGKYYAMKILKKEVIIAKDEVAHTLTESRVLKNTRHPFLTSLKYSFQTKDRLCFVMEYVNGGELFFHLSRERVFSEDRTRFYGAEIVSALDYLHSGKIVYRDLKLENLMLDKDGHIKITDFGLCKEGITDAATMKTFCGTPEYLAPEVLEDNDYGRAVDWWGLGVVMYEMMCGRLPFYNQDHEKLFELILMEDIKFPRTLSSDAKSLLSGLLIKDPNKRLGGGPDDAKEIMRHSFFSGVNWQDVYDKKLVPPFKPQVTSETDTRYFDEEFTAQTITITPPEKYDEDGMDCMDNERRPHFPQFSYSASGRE

[12] = biological target: T1, Mitogen-activated protein kinase kinase kinase 3 (Homo sapiens) (UniProt Q99759); details: Compound concentration 1.0 uM
T1 sequence (whole entry): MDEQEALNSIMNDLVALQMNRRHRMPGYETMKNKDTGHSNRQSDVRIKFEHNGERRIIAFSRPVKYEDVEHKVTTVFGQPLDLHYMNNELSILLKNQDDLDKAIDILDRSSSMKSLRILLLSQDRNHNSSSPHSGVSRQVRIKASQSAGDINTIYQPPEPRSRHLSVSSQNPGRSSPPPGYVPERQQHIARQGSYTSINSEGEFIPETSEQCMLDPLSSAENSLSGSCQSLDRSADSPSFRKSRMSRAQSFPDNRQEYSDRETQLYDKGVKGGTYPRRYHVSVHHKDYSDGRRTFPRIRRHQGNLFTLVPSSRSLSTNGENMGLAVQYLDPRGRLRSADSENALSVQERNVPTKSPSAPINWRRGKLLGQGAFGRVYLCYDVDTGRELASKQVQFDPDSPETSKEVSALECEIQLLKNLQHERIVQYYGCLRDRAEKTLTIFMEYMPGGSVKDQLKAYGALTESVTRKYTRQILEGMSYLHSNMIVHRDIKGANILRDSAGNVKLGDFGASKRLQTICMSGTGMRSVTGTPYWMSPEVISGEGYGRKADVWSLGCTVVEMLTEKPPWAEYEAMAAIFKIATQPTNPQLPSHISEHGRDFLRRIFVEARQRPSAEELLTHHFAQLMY

[13] = biological target: T2, Dual specificity protein kinase TTK (Homo sapiens) (UniProt P33981); details: Compound concentration 1.0 uM
T2 sequence (whole entry): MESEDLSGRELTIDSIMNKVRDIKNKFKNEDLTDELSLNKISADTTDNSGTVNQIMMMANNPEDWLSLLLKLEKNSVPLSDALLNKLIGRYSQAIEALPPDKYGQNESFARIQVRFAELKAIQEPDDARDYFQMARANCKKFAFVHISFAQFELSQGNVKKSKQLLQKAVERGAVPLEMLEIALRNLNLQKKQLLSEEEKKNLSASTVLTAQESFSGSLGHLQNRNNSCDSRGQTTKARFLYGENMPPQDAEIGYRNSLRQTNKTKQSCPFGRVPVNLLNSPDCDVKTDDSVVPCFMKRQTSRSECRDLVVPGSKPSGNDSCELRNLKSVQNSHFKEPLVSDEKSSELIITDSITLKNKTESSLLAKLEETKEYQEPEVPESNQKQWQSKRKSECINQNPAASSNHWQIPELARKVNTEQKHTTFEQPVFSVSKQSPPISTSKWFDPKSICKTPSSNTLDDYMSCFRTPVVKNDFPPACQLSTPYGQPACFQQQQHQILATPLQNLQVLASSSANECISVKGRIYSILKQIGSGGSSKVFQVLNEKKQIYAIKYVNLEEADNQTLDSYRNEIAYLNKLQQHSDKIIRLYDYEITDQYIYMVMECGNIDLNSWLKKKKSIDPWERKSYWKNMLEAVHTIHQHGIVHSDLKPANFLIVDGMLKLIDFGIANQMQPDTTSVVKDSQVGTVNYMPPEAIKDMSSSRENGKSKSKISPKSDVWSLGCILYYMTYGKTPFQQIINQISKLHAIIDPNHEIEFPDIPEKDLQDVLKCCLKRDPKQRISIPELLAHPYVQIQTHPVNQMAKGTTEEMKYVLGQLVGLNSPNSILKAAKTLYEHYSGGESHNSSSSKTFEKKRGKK

[14] = biological target: T3, Activin receptor type-1 (Homo sapiens) (UniProt Q04771); details: Compound concentration 1.0 uM
T3 sequence (whole entry): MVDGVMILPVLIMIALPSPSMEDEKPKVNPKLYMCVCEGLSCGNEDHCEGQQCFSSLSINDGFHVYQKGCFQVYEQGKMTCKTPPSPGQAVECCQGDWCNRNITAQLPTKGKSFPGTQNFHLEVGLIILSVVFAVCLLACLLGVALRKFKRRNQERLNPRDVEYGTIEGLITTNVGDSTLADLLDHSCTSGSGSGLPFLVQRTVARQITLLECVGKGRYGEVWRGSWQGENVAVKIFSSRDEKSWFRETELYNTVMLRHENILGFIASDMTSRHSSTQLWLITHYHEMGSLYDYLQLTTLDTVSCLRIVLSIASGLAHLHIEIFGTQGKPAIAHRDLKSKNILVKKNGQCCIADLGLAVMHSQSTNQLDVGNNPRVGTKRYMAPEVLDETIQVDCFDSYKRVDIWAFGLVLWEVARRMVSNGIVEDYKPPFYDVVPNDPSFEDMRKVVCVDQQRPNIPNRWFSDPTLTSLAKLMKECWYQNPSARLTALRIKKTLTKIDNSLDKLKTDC

[15] = biological target: CDK4/Cyclin D3 (Homo sapiens) (UniProt P11802+P30281); details: Compound concentration 1.0 uM

Sequence of Sodium-dependent dopamine transporter (Homo sapiens) (Q01959 whole entry): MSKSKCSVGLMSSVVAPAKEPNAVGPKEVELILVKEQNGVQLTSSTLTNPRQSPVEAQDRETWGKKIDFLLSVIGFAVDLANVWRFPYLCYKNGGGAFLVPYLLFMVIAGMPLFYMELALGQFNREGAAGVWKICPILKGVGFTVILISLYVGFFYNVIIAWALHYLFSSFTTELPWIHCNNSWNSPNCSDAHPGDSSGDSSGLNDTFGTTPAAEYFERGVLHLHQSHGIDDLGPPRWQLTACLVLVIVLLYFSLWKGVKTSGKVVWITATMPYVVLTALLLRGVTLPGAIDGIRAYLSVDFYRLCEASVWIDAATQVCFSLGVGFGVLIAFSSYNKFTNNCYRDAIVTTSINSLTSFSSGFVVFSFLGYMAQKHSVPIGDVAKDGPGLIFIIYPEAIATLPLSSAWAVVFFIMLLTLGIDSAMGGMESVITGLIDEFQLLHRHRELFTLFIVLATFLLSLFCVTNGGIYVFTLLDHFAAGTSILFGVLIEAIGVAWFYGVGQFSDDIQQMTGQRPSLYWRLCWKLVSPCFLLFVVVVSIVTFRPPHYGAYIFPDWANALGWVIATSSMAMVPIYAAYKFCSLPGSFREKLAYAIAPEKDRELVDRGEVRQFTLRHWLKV
Sequence of eIF-2-alpha kinase GCN2 (Homo sapiens) (Q9P2K8 whole entry): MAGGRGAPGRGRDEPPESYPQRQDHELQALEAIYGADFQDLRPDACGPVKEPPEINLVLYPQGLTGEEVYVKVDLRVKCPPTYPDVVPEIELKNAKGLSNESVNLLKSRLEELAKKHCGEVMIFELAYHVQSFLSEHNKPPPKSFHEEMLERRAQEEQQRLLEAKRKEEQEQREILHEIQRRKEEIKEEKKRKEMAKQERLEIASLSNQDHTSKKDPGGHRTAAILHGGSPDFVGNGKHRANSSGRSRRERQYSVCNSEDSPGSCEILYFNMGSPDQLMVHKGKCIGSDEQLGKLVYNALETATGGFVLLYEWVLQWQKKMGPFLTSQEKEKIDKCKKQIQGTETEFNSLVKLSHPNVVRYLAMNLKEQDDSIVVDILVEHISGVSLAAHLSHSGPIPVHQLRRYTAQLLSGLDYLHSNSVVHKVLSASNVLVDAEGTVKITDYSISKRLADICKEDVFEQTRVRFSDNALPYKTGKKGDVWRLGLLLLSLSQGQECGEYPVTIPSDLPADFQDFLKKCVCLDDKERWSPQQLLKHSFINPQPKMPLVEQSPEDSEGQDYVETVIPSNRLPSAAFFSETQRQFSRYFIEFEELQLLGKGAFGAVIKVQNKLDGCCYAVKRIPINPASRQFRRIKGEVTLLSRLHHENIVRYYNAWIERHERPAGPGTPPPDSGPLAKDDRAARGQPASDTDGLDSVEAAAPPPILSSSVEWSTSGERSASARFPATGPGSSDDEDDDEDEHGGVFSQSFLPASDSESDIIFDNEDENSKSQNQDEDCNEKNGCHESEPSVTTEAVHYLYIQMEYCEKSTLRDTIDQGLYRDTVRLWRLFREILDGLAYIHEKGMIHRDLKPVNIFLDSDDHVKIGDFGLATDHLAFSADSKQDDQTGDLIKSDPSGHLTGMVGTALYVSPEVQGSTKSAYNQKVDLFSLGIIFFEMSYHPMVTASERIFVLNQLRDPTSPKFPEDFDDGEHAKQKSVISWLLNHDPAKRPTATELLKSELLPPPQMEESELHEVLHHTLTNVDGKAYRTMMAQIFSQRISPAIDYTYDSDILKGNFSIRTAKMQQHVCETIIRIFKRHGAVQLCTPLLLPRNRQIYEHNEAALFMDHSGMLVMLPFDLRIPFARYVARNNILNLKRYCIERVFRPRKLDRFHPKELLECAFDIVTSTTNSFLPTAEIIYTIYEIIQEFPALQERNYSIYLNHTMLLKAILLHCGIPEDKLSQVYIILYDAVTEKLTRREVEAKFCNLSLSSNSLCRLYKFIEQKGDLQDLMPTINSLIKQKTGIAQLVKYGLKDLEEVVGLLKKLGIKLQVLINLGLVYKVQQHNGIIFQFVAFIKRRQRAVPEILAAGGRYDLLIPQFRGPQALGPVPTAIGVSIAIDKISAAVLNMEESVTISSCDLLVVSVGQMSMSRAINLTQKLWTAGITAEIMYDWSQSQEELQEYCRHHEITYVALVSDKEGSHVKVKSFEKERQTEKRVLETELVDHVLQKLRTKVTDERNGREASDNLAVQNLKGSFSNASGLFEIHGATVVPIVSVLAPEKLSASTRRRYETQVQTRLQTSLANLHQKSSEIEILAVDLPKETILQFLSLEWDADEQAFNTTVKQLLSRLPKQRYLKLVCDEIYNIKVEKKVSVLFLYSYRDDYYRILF

CN1CCN(c2cnc3c(C4CCN(C(=O)c5ccc(OC(F)(F)F)cc5N)CC4)ncnc3c2)CC1 [BAY-885]
inactive: % residual kinase activity [1] 98% | inhibition [2] -4.2% | % residual kinase activity [3] 101% | % residual kinase activity [4] 124% | % residual kinase activity [5] 113% | % residual kinase activity [6] 101% | % residual kinase activity [7] 99% | % residual kinase activity [8] 111% | % residual kinase activity [9] 101% | % residual kinase activity [10] 107% | % residual kinase activity [11] 113% | % residual kinase activity [12] 94% | % residual kinase activity [13] 93% | % residual kinase activity [14] 98% | % residual kinase activity [15] 106%
